{"source": "patent US9724408B2", "about": "“Compositions and methods for activating stimulator of interferon gene-dependent signalling” (ADURO BIOTECH, INC., priority 2013, dated 2017)", "key": {"OVA257-264 peptide [1]": {"tested_on": "OVA257-264 peptide", "test": "OVA-specific CD8 T cell response after CDN-adjuvanted OVA vaccination (IFNγ ELISpot)", "assay_type": "in vivo, C57BL/6 mice", "details": "subcutaneous", "protocol": "To determine the OVA-specific CD8 T cell response induced by the different cyclic dinucleotide molecules, C57BL/6 mice (n=5) were immunized subcutaneously with 0 μg (no CDN) or 5 μg or 25 μg [G(2′,5′)pG(3′,5′)p] (mixed linkage or ML-CDG) formulated in 2% squalene-and-water with 10 μg ovalbumin protein. Seven days following the vaccination, blood was collected from each animal, and PBMCs were prepared. 5×10^4 PBMCs were stimulated overnight in an IFNγ ELISpot assay with media alone (unstimulated) or with 1 μM OVA257-264 peptide in the presence of 1×10^5 naïve splenocytes as feeder cells. IFNγ ELISpots were developed and quantified using a CTL plate reader and ImmunoSpot software.\nTo determine whether STING signaling is required for c[G(2′,5′)pG(3′,5′)p] (ML-CDG) to induce an OVA-specific CD8 T cell response, C57BL/6 mice (n=3 or 5) and goldenticket mice (n=3) were immunized subcutaneously with either 0 μg (no CDN) or 25 μg c[G(2′,5′)pG(3′,5′)p] (ML-CDG) formulated in 2% squalene-and-water with 10 μg ovalbumin protein. Seven days following the vaccination, blood was collected from each animal, and PBMCs were prepared. […] IFNγ ELISpots were developed and quantified using a CTL plate reader and ImmunoSpot software."}, "THP1-Blue™ ISG cells": {"tested_on": "THP1-Blue™ ISG cells", "test": "Type I interferon induction in THP1-Blue ISG reporter cells (QUANTI-Blue, A655)", "assay_type": "cell-based, human", "details": "100 μM for 30 minutes, supernatants after overnight incubation, FIG. 7", "protocol": "To determine the relative level of type I interferon induced in human cells by each of the native and derivative molecules as a signature of adjuvant potency, 4×10^5 THP1-Blue™ ISG cells (a human monocyte cell line transfected with an IRF-inducible secreted embryonic alkaline phosphatase reporter gene (Invivogen) which express alkaline phosphatase under the control of a promoter comprised of five IFN-stimulated response elements) were incubated with 100 μM of cyclic [G(3′,5′)pG(3′,5′)p] (CDG), cyclic [G(2′,5′)pG(3′,5′)p] (mixed linkage, or ML-CDG), or HBSS for 30 minutes at 37° C. with 5% CO2. After 30 minutes, cells were washed and plated in 96-well dish in RPMI media containing 10% FBS, and incubated at 37° C. with 5% CO2. Cell culture supernatants from each sample were collected after overnight incubation, and 20 μL of the cell culture supernatants was added to 180 μL QUANTI-Blue reagent (Invivogen) and incubated for 45 minutes to evaluate type I interferon protein levels. Readings at Absorbance 655 nm were taken every 3 minutes using a Versa Max kinetic spectrophotometer (Molecular Diagnostics).\n[…]. After 30 minutes, cells were washed and plated in 96-well dish in RPMI media containing 10% FBS, and incubated at 37° C. with 5% CO2. Cell culture supernatants from each sample were collected after overnight incubation, and 20 μL of the cell culture supernatants was added to 180 μL QUANTI-Blue reagent (Invivogen) and incubated for 45 minutes. Readings at Absorbance 655 nm were taken at 15 minutes using a SpectraMax spectrophotometer (Molecular Diagnostics).\nThe induction of type I interferon in human cells was measured to evaluate the potency of untreated and phosphodiesterase-treated oxo, Rp monothio and Rp, Rp dithio derivatives. […]. After 30 minutes, cells were washed and plated in a 96-well dish in RPMI media containing 10% FBS, and incubated at 37° C. with 5% CO2. Cell culture supernatants from each sample were collected after 16 hr incubation, and 20 μL of the cell culture supernatants was added to 180 μL QUANTI-Blue reagent (Invivogen) and incubated for 25 minutes to evaluate type I interferon protein levels. Readings at Absorbance 655 nm were measured with a Versa Max spectrophotometer (Molecular Diagnostics)."}, "primary human PBMCs [2]": {"tested_on": "primary human PBMCs", "test": "Interferon gene expression in primary human PBMCs (real-time quantitative RT-PCR)", "assay_type": "cell-based", "details": "5 μM, Effectene transfection, 6 hrs, four donors, FIG. 8", "protocol": "(§1) To determine the levels of IFN-α, -β and -γ induced by cyclic [G(2′,5′)pG(3′,5′)p] (ML-CDG) compared to cyclic [G(3′,5′)pG(3′,5′)p] as a signature of potency to activate innate immunity, 1×10^6 primary human PBMCs isolated from four independent human donors were incubated in a 96 well U bottom plate for 30 min at 37° C., 5% CO2 with 5 or 0.5 μM of cyclic [G(3′,5′)pG(3′,5′)p] (CDG) or cyclic [G(2′,5′)pG(3′,5′)p] (ML-CDG), 1 μg/mL of Interferon Stimulatory DNA (ISD), or 4 μg/mL of Poly (I:C) utilizing Effectene transfection reagent (Qiagen) to transfer the molecules into the PBMC. ISD (Interferon Stimulating DNA) is TLR independent (Stetston, D. B. et. al. Immunity 24, 93-103, January 2006) and signals through cGAS, and is thus STING-dependent, while Poly (I:C) can signal through both TLR3 and RIG-I pathways, and are thus STING-independent. After 30 minutes, the cells were washed and replaced with RPMI media containing 10% FBS and incubated at 37° C., 5% CO2. After 6 hrs incubation, a portion of the cells were harvested and assessed by real-time quantitative RT-PCR for gene expression of the type I cytokines interferon alpha 2 (IFNA2) and interferon beta 1 (IFNB1), and the type II cytokine gene interferon gamma (IFNG). Gene expression was determined by real-time quantitative RT-PCR using the PrimePCR RNA purification and cDNA analysis system, and run on the CFX96 gene cycler (all BioRad). Normalized expression was determined for each, which accounts for the different efficiencies of PCR amplification for the target (Etarget) and the reference (Ereference), and transforms the logarithmic scaled raw data unit Cycle Threshold (CT) into the linear unit of Normalized Expression. […] To assess correlative secreted protein levels of these cytokines, supernatants were harvested from the remaining cells after 24 hours incubation and IFN-α and -γ levels were determined by Cytometric Bead Array (CBA, BD Biosciences), while IFN-β levels were determined by ELISA (PBL)."}, "OVA257-264 peptide [3]": {"tested_on": "OVA257-264 peptide", "test": "OVA-specific CD8 T cell response in goldenticket (STING−/−) mice (IFNγ ELISpot)", "assay_type": "in vivo", "details": "25 μg in 2% squalene-and-water with 10 μg ovalbumin, subcutaneous, day 7, FIG. 17", "protocol": "To determine whether STING signaling is required for c[G(2′,5′)pG(3′,5′)p] (ML-CDG) to induce an OVA-specific CD8 T cell response, C57BL/6 mice (n=3 or 5) and goldenticket mice (n=3) were immunized subcutaneously with either 0 μg (no CDN) or 25 μg c[G(2′,5′)pG(3′,5′)p] (ML-CDG) formulated in 2% squalene-and-water with 10 μg ovalbumin protein. Seven days following the vaccination, blood was collected from each animal, and PBMCs were prepared. 5×10^4 PBMCs were stimulated overnight in an IFNγ ELISpot assay with media alone (unstimulated) or with 1 μM OVA257-264 peptide in the presence of 1×10^5 naïve splenocytes as feeder cells. IFNγ ELISpots were developed and quantified using a CTL plate reader and ImmunoSpot software."}, "primary human PBMCs [4]": {"tested_on": "primary human PBMCs", "test": "Secreted interferon protein in primary human PBMCs (CBA, ELISA)", "assay_type": "cell-based", "details": "24 hours, four donors", "protocol": "as §1"}}}
{"compound": "Nc1nc2c(ncn2C2OC3COP(=O)(O)OC4C(O)C(COP(=O)(O)OC3C2O)OC4n2cnc3c(=O)[nH]c(N)nc32)c(=O)[nH]1", "note": "(stereo not shown) [ML-CDG, cyclic-[G(2′,5′)pG(3′,5′)p]]", "values": [{"measurement": "OVA-specific CD8 immune responses", "setting": "OVA257-264 peptide [1]; 5 μg or 25 μg in 2% squalene-and-water with 10 μg ovalbumin, day 7, FIG. 16", "value": "significantly higher than responses induced by unstimulated controls and by a no CDN control group"}, {"measurement": "OVA-specific CD8 T cell response, wild-type mice", "setting": "OVA257-264 peptide [1]; 25 μg in 2% squalene-and-water with 10 μg ovalbumin, day 7, FIG. 17", "value": "induces significant OVA257-264 immune responses compared to unstimulated control and a no CDN control"}, {"measurement": "levels of IFN-β (type I interferon protein levels)", "setting": "THP1-Blue™ ISG cells", "value": "significantly higher levels of IFN-β than cyclic [G(3′,5′)pG(3′,5′)p]"}, {"measurement": "gene expression for interferon gamma (IFNG)", "setting": "primary human PBMCs [2]", "value": "significantly higher level"}, {"measurement": "gene expression of interferon alpha 2 (IFNA2)", "setting": "primary human PBMCs [2]", "value": "significantly higher"}, {"measurement": "gene expression of interferon beta 1 (IFNB1)", "setting": "primary human PBMCs [2]", "value": "significantly higher"}, {"measurement": "OVA-specific CD8 T cell response, goldenticket mice", "setting": "OVA257-264 peptide [3]", "value": "not significantly different than the OVA-specific responses induced by a control formulation that does not include CDN"}, {"measurement": "secretion of IFN-γ", "setting": "primary human PBMCs [4]; 5 μM and 0.5 μM, CBA, FIG. 9(c)", "value": "higher levels of IFN-γ than cyclic [G(3′,5′)pG(3′,5′)p] at the same doses, and higher levels than the ISD and Poly I:C controls"}, {"measurement": "levels of secreted IFN-α", "setting": "primary human PBMCs [4]; 5 μM, CBA, FIG. 9(a)", "value": "higher than cyclic [G(3′,5′)pG(3′,5′)p] at the same or lower dose"}, {"measurement": "levels of IFN-β", "setting": "primary human PBMCs [4]; 5 μM, ELISA, FIG. 9(b)", "value": "higher than with cyclic [G(3′,5′)pG(3′,5′)p] induced levels, as well as for the ISD and Poly I:C controls"}]}
